Measured values: US7652027B2, “Phenanthroindolizidine alkaloids” (National Health Research Institutes, priority 2005, dated 2010)

Assays:
[1] = tested on: NUGC-3 (gastric cancer); assay: Carcinoma cell growth inhibition (MTS assay), NUGC-3; assay type: cell-based; conditions: 72 h
Description: (§1) Two cancer cell lines, HONE-1 (nasopharyngeal carcinoma) and NUGC-3 (gastric cancer), were maintained in DMEM medium containing 10% fetal bovine serum, seeded in 96-well plates (4500 and 6000 cells/well, respectively), and incubated under CO2 at 37° C. for 24 h. The cells were treated with at least five different concentrations of test compounds in a CO2 incubator for 72 h. The number of viable cells was estimated using the tetrazolium dye reduction assay (MTS assay) according to the protocol provided by the manufacturer (Promega, Madison, Wis., USA). The absorbance was measured at 490 nm on a Wallac 1420 VICTOR2 Multilabel counter (Perkin-Elmer, Boston, Mass.). The results of these assays were used to obtain the dose-response curves from which IC50 (nM) values were determined (an IC50 value represents the concentration (nM) of the test compound at which it produces a 50% cell growth inhibition after 3 days of incubation).

[2] = tested on: HONE-1 (nasopharyngeal carcinoma); assay: Carcinoma cell growth inhibition (MTS assay), HONE-1; assay type: cell-based; conditions: 72 h
Description: as §1

[3] = tested on: AP 1; assay: pAP 1-Luc reporter assay in RAW264.7 cells co-transfected with pFC-MEKK; assay type: cell-based; conditions: at the concentration of 3 μM or higher; cells treated with LPS/IFNγ
Description: (§2) RAW 264.7 cells (or A549 cells) were seeded in 24-well plates (10^6 cells/well) 4-6 h before they were transfected with pNF-κB-Luc (Stratagene Corp., Calif.) (100 ng/well) and pCMV-β-gal (100 ng/well), or pAP 1-Luc (Stratagene Corp., Calif.) (200 ng/well) alone. The transfected cells were incubated for 24 h and then washed with the culture medium twice. After 18 h of incubation, the cells were treated with LPS (10 μg/ml)/IFNγ (20 ng/ml) and Compound 2 (final concentration: 0.3, 1, 3, or 10 μM) for 5 h. The cells were subjected to the luciferase and β-galactosidase assays.
(§3) In a similar manner, RAW264.7 cells were transfected with pNF-κB-Luc plasmids (100 ng/well) or pAP 1-Luc (100 ng/well) as well as pFC-MEKK (Stratagene Corp., Calif.) (50 ng/well) and/or pCMV-β-gal plasmids (100 ng/well) and the transfected cells were subjected to the luciferase and β-galactosidase assays.

[4] = tested on: c-Jun; assay: Expression of c-Jun in LPS/IFNγ-treated RAW264.7 cells; assay type: cell-based
[5] = tested on: ATF-2; assay: Phosphorylation of ATF-2 in LPS/IFNγ-treated RAW264.7 cells; assay type: cell-based
[6] = tested on: iNOS promoter; assay: iNOS promoter-luciferase reporter assay in LPS/IFNγ-treated RAW 264.7 (or A549) cells; assay type: cell-based, murine or human; conditions: 10 μM compound; 5 μg/ml LPS, 20 ng/ml IFNγ; 18-20 h
Description: RAW 264.7 cells (or A549 cells) were seeded in 24-well plates (9×10^4 cells/well) and grown overnight in sodium pyruvate-free DMEM with 4 mM glutamine containing 1% non-essential amino acids (Biological Industries, Israel) with antibiotics and 10% heat-inactivated fetal bovine serum or 10% fetal calf serum (Biological Industries, Israel). The cells were then co-transfected with murine or human iNOS or murine COX-II promoter-luciferase reporter plasmids (100 ng/well) and pCMV-β-gal (100 ng/well) using FuGene6 (Roche, Germany) following the protocol provided by the manufacturer. Murine iNOS promoter luciferase plasmids, human iNOS promoter-luciferase reporter plasmids (pGL3-8296), and murine COX-II promoter-luciferase reporter plasmids were generously provided by Drs. Charles J. Lowenstein (John Hopkines University), Joel Moss (National Institute of Health), and Yu-Chih Liang (Taipei Medical University), respectively. […]
The luciferase and β-galactosidase assays were performed using a STEADY-GLO luciferase assay system (Promega) and Galacto-Star assay system (Tropix) according to the manufacturer's instructions. Luminescence was measured in a TOPCOUNT.NXT™ Microplate Scintillation and Luminescence Counter (Packard Inc.). […]

[7] = tested on: Akt; assay: Phosphorylation of Akt in LPS/IFNγ-treated RAW264.7 cells; assay type: cell-based
[8] = tested on: iNOS; assay: iNOS level by immunoblotting; assay type: cell-based; conditions: immunoblotting of cell lysates
Description: (§4) Levels of iNOS, COX-II, and β-actin (control) were measured by immunoblotting with anti-iNOS antibody (Biomol), anti-COX-II antibody (Upstate), and anti-β-actin antibody (Chemicon), respectively. The cell lysates were subjected to SDS-PAGE and the separated proteins were electrophoretically transferred to nitrocellulose membranes. The membranes were incubated, respectively, with blocking solution for 1 h, primary antibody for 2 h, and secondary antibody for 1 h. Antigen-antibody complexes were detected using ECL detection reagents (Perkin Elmer, Western Blot Chemiluminescence Reagent Plus) according to the manufacturer's instructions.

[9] = tested on: NF-κB; assay: pNF-κB-Luc luciferase reporter assay in LPS/IFNγ-treated RAW 264.7 (or A549) cells; assay type: cell-based
Description: (§5) The luciferase and β-galactosidase assays were performed using a STEADY-GLO luciferase assay system (Promega) and Galacto-Star assay system (Tropix) according to the manufacturer's instructions. Luminescence was measured in a TOPCOUNT.NXT™ Microplate Scintillation and Luminescence Counter (Packard Inc.). The results were normalized to β-galactosidase activity derived from co-transfected LacZ gene under the control of a constitutive promoter.
as §2

[10] = tested on: NF-κB; assay: pNF-κB-Luc reporter assay in RAW264.7 cells co-transfected with pFC-MEKK; assay type: cell-based; conditions: at the concentration of 3 μM or higher; cells treated with LPS/IFNγ
Description: as §2, §3

[11] = tested on: TNF α; assay: TNF α protein ELISA in cell culture supernatants; assay type: cell-based
Description: RAW 264.7 cells were seeded (70,000 cells/well) and cultured in 96-well culture plate. After 24 h incubation, the medium was replaced with one containing LPS (5 ug/ml)/IFNγ (20 ng/ml) and each of Compounds 1-4 (final concentration: 3, 5, or 6 μM) was added at different concentrations. After 18-24 h, the supernatants were subjected to the measurement of nitric oxide production using the Nitrate/Nitrite assay kit (Cayman Chemical). Nitric oxide levels were measured as the accumulation of nitrite and nitrate in the incubation medium. Nitrate was reduced to nitrite with nitrate reductase and determined spectrophotometrically with the Griess reagent at OD405. The attached cells were subjected to cytotoxicity measurement using the MTS assay.
An ELISA kit (R & D Systems Inc., USA) was used to measure TNF α protein in cell culture supernatants using according to the manufacturer's instructions.

[12] = tested on: AP1; assay: pAP 1-Luc luciferase reporter assay in LPS/IFNγ-treated RAW 264.7 (or A549) cells; assay type: cell-based; conditions: at the concentration higher than 1 μM; LPS (10 μg/ml)/IFNγ (20 ng/ml), 5 h
Description: as §5, §2

[13] = tested on: COX-II; assay: COX-II level by immunoblotting; assay type: cell-based; conditions: immunoblotting of cell lysates
Description: as §4

[14] = target: T1, MEKK1 (Mus musculus, UniProt P53349); assay: MEKK1 inhibition inferred from reporter assays in MEKK1 over-expressing RAW264.7 cells; assay type: cell-based; conditions: suggested by the reporter results in MEKK1 over-expressing cells
T1 construct: host or cells: RAW264.7
T1 sequence (P53349 1201-1493 limits assumed): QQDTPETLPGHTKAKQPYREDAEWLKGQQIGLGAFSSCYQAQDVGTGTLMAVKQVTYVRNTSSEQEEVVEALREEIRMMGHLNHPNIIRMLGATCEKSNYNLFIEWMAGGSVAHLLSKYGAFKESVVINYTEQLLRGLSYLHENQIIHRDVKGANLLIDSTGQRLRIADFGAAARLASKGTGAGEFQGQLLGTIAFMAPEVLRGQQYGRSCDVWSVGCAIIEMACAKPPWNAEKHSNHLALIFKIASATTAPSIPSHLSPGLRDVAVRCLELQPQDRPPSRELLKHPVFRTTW
Description: as §3

SMILES	inhibition of proliferation of NUGC-3 cells [1]	inhibition of proliferation of HONE-1 cells [2]	inhibition of AP 1 activity in cells with over-expression of MEKK1 [3]	expression of c-Jun [4]	phosphorylation of ATF-2 [5]	inhibition of iNOS promoter activity [6]	phosphorylation of Akt [7]	iNOS level [8]	inhibition of NF-κB activity, Compound 2 and another P13K/Akt inhibitor ([9]; Compound 2 and LY294002 named together, LPS/IFNγ-treated RAW264.7 cells)	inhibition of NF-κB activity ([9]; tested at 0.3, 1, 3, or 10 μM, LPS (10 μg/ml)/IFNγ (20 ng/ml), 5 h, serum-free medium)	inhibition of pNF-κB activity in cells with over-expression of MEKK1 [10]	inhibition of production of TNF α [11]	inhibition of AP 1 activity [12]	COX-II level [13]	inhibition of MEKK1 activity or expression [14]
COc1cc2c3c[n+]4c(cc3c3cc(OC)c(OC)c(OC)c3c2cc1OC)CCC4 [Compound 1]	inhibited	inhibited													
COc1cc2c3c(c4cc(OC)c(OC)cc4c2cc1OC)CN1CCC[C@H]1C3 [Compound 2]	inhibited	inhibited	inhibited	inhibited	enhanced	effectively inhibited	enhanced	lowered	significantly inhibited	not	inhibited	inhibited	inhibited	lowered	inhibited
COc1cc2c3c(c4cc(OC)c(OC)c(OC)c4c2cc1OC)[C@H](O)[C@@H]1CCC[N+]1([O-])C3 (some centres unmarked) [Compound 4]	inhibited	inhibited				effectively inhibited									
